Test system: 60 to 80 years old subjects (Impaired Elderly and Healthy Elderly)
Test: Verbal Learning Task (VLT) in 60 to 80 years old subjects, interim analysis
Format: in vivo, human
Description: The study is conducted according to a double-blind, placebo-controlled, four-period cross-over design. Forty healthy subjects, both male and female within an age range of 60 to 80 years are planned to be included in the study in 2 groups: 1) 20 subjects with a memory performance between 1-2 Standard Deviation below the average for their age, gender, and educated level (Impaired Elderly) and 2) 20 subjects with age (±3 years), gender, and educational level matched (in order to speed up the study matching was stopped after the interim analysis) with an average memory performance between 0.5 Standard Deviation below and 0.5 Standard Deviation above from normative values (Healthy Elderly). Classification in terms of impaired or healthy elderly will be determined by a one-off testing of memory performance using the Rey Verbal Learning Task (Rey A; L'examen psychologique dans les cas d'encephalopathy traumatique 1958 Paris; Presses Universitaire de France; or Van der Elst et al; J Int Neuropsychol Soc 2005, 11 (3), pp 290-302) according to fully standardized procedures as applied in The Maastricht Aging Study (Jolles et al; Maastricht Aging Study; determinants of cognitive aging; Maastricht, The Netherlands, Neuropsych Publishers 1995). Normative data for each individual subject will be derived also from the Maastricht Aging Study using the regression formula as described by Van der Elst et al (Van der Elst et al; J Int Neuropsychol Soc 2005, 11 (3), pp 290-302).
All subjects within their corresponding groups (either Healthy Elderly n=20 or Impaired Elderly n=20) will be randomized in a double blind fashion to 1 of 4 treatment sequences, each sequence consisting of the following periods: A) Placebo+placebo; B) Roflumilast 100 mcg+placebo; C) Roflumilast […]+placebo and D) Roflumilast 1000 mcg (500+500 mcg) according to a computer-generated allocation schedule in a cross-over design. Between each of the four treatment sequences there will be a 12 days washout period.
Cognitive status will be quantified using computerized cognitive battery, a validated tool for measuring the cognitive impairment in humans. The battery will consist of: VLT, Spatial Memory Task (SMT), Stroop Task, and Bond-Lader Visual Analogue Scales (BL-VAS).
Verbal learning task (VLT) The Rey VLT as modified by Riedel and colleagues (Riedel, Klaasen et al, Psychopharmacology (Berlin) 1999 Vol 141(4) pp 362-369) is used. This modified VLT maximizes the possibility of measuring enhancement rather than only impairment, by means of prolonging the list. The test consists of a list of 30 monosyllabic words (18 nouns and 12 adjectives). The words are shown on a computer screen for 1 second. Three trials with the same item sequence are presented. Each trial ends with a free recall of the words (immediate recall). Forty-five minutes after the first exposure, the subject is asked to recall as many words as possible (delayed recall). […] The words are shown on a computer screen for 2 seconds and subjects are asked to rate whether they were presented in the learning trial by a “yes/no” response. The inter-word interval is 2 seconds. 24 Hours after the immediate recall, subjects will return to the lab for a second delayed recall and recognition. The remaining 15 old words and 15 new words will be presented during recognition. EEG will be recorded during the immediate recall and the first recognition test on the test day. […]

O=C(Nc1c(Cl)cncc1Cl)c1ccc(OC(F)F)c(OCC2CC2)c1 [roflumilast, N-(3,5-dichloropyridin-4-yl)-3-cyclopropylmethoxy-4-difluoromethoxybenzamide]
number of words on the 3rd trial of VLT (100 mcg single dose, elderly subjects, placebo 8.81): 10.28 words
placebo-corrected fold-improvement in VLT (100 mcg single dose, interim data of the elderly study): 1.16
increase in the number of correct words recalled after 45 min delayed recall trial of VLT, compared to placebo (100 mcg single dose, pooled interim analysis): 1.7 words
increase in the number of correct words immediately recalled after the 3rd trial of VLT, compared to placebo (100 mcg single dose, pooled interim analysis, 9 Impaired and 4 Healthy Elderly): 1.5 words
increase in the number of correct words recalled after 45 min delayed recall trial of VLT, compared to placebo (1000 mcg single dose, pooled interim analysis): 1.6 words

Reference: US10357486B2, “Treatment of cognitive impairment with PDE4 inhibitor” (Universiteit Maastricht, priority 2013, dated 2019)
